Source: ChEMBL document CHEMBL6078697, “Synthesis and Evaluation of 9-epi-Koshidacin B as Selective Inhibitor of Histone Deacetylase 1” (J Nat Prod, 2024)

Assays:
[1] = biological target: T1, Histone deacetylase 1 (Homo sapiens, UniProt Q13547); assay: Binding affinity to HDAC1 (unknown origin) assessed as inhibition constant
[2] = Selectivity ratio of IC50 for inhibition of HDAC4 (unknown origin) to IC50 for inhibition of HDAC1 (unknown origin)
[3] = Selectivity ratio of IC50 for inhibition of HDAC6 (unknown origin) to IC50 for inhibition of HDAC1 (unknown origin)
[4] = biological target: T1, Histone deacetylase 1; assay: Inhibition of HDAC1 (unknown origin) using RHKK(Ac)AMC as substrate
[5] = biological target: T2, Protein deacetylase HDAC6 (Homo sapiens, UniProt Q9UBN7); assay: Inhibition of HDAC6 (unknown origin) using RHKK(Ac)AMC as substrate
T2 sequence (Q9UBN7 whole entry): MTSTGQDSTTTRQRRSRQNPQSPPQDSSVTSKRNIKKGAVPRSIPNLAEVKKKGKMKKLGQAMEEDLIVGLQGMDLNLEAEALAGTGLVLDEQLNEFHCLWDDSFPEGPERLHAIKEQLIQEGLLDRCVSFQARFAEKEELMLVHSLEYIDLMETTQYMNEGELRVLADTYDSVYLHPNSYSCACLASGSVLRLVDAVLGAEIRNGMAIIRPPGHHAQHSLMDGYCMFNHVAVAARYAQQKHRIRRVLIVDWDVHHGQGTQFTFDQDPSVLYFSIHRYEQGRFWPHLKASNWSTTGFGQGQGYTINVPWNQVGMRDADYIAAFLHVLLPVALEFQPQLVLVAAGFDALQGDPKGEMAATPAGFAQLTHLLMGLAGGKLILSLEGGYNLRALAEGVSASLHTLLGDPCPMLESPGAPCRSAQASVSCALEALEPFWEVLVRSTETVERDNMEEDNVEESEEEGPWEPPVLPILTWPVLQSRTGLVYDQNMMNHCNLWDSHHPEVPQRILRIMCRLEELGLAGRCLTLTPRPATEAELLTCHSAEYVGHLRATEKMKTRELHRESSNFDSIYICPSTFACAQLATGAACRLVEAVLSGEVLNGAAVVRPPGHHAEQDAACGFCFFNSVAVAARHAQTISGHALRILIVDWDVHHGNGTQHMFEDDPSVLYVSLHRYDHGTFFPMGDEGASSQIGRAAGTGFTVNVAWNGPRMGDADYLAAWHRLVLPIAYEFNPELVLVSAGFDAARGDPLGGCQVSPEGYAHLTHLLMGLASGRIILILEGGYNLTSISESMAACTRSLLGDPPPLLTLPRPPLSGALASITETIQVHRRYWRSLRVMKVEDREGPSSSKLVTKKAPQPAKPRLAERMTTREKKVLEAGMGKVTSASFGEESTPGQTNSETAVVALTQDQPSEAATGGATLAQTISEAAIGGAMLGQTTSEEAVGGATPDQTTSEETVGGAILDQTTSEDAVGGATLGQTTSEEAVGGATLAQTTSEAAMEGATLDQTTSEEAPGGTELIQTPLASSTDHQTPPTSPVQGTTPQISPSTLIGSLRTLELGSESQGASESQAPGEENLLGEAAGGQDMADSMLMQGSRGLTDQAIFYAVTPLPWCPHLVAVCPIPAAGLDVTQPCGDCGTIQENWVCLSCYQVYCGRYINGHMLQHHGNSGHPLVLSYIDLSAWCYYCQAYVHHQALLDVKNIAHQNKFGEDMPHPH

[6] = biological target: T1, Histone deacetylase 1; assay: Inhibition of HDAC1 (unknown origin)
[7] = biological target: Histone deacetylase 4 (Homo sapiens, UniProt P56524); assay: Inhibition of HDAC4 (unknown origin) using trifluoroacetyl lysine as substrate
Sequence of Histone deacetylase 4 (P56524 whole entry): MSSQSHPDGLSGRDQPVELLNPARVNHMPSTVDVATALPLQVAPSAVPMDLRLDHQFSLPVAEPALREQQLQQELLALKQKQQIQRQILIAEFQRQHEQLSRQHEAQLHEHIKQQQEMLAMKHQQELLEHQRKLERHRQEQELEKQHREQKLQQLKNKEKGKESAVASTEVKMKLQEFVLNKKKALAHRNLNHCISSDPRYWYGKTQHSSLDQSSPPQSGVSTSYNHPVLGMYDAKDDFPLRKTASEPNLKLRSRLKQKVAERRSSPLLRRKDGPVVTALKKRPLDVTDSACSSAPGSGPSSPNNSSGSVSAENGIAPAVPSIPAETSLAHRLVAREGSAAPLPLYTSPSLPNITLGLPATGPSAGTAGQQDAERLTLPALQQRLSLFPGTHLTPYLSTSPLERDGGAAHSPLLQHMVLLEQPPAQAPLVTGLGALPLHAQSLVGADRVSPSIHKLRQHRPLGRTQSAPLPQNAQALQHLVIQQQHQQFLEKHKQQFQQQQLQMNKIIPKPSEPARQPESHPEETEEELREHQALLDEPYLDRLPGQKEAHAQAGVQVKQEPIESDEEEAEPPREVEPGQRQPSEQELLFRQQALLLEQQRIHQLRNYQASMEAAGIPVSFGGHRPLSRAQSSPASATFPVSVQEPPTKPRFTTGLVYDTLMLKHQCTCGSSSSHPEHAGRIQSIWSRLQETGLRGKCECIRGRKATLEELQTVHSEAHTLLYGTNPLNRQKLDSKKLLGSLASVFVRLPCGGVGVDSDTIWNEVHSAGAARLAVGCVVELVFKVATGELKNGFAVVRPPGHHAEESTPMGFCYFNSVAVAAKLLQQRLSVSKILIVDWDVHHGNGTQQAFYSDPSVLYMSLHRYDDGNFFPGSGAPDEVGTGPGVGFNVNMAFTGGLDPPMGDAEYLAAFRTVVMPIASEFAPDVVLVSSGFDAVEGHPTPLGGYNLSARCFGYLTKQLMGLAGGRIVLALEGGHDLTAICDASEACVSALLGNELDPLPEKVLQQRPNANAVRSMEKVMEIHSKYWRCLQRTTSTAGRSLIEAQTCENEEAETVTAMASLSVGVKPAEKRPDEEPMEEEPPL

T1 sequence (Q13547 whole entry): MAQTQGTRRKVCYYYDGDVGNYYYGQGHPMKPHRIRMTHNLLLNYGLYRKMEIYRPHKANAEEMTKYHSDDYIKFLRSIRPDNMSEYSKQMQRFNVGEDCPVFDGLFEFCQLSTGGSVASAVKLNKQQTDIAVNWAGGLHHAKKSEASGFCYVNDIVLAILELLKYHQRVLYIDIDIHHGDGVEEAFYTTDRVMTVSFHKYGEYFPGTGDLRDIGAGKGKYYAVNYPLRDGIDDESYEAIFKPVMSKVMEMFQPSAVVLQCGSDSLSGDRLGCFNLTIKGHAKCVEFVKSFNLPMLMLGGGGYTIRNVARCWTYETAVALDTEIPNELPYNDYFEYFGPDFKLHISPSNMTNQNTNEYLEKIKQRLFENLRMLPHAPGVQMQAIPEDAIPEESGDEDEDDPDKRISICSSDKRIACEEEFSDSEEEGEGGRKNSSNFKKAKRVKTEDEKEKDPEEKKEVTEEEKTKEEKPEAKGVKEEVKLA

Row | Ki [1] [µM] | IC50 [4] [µM] | Structure (SMILES) | also measured
1 | 22.1 | – | CC1(C)NC(=O)[C@H](CCCCCC(=O)[C@@H](O)CO)NC(=O)[C@H]2CCCN2C(=O)[C@H](Cc2ccccc2)NC1=O (stereo in doubt; form 2) | –
2 | – | – | CC1(C)NC(=O)[C@H](CCCCCC(=O)[C@H](O)CO)NC(=O)[C@H]2CCCN2C(=O)[C@H](Cc2ccccc2)NC1=O [listing 1 of 2 here] | Ratio IC50 [2]: 7000; Ratio IC50 [3]: 2200
3 | – | 0.03 | C[C@@H](O)C(=O)CCCCC[C@@H]1NC(=O)[C@H]2CCCN2C(=O)[C@H](Cc2ccccc2)NC(=O)C(C)(C)NC1=O | –
4 | 11.2 | – | CC1(C)NC(=O)[C@H](CCCCCC(=O)[C@@H](O)CO)NC(=O)[C@H]2CCCN2C(=O)[C@H](Cc2ccccc2)NC1=O (stereo in doubt; form 1) | –
5 | – | 0.33 | C[C@H](O)C(=O)CCCCC[C@@H]1NC(=O)[C@H]2CCCN2C(=O)[C@H](Cc2ccccc2)NC(=O)C(C)(C)NC1=O | –
6 | 5.65 | – | CC1(C)NC(=O)[C@H](CCCCCC(=O)[C@H](O)CO)NC(=O)[C@H]2CCCN2C(=O)[C@H](Cc2ccccc2)NC1=O (stereo in doubt; form 1) | –
7 | 15.8 | – | CC1(C)NC(=O)[C@H](CCCCCC(=O)[C@H](O)CO)NC(=O)[C@H]2CCCN2C(=O)[C@H](Cc2ccccc2)NC1=O (stereo in doubt; form 2) | –
8 | – | 0.145 | CC1(C)NC(=O)[C@H](CCCCCC(=O)[C@H](O)CO)NC(=O)[C@H]2CCCN2C(=O)[C@H](Cc2ccccc2)NC1=O [listing 2 of 2 here] | IC50 [7]: 1000 µM; IC50 [5]: 319 µM
9 | – | – | CC[C@]1(C)NC(=O)[C@H](CCCCCC(=O)[C@@H](C)O)NC(=O)[C@H]2CCCN2C(=O)[C@H](Cc2ccc(O)cc2)NC1=O | IC50 [6]: 0.0215 µM

Row | Structure (SMILES) | Ki [1] [µM] | IC50 [4] [µM] | also measured
10 | CC1(C)NC(=O)[C@H](CCCCCC(=O)[C@@H]2CO2)NC(=O)[C@H]2CCCN2C(=O)[C@H](Cc2ccccc2)NC1=O | – | 0.00015 | IC50 [5]: 1.1 µM; IC50 [6]: 1.1 µM
